Data from US20250057805A1, “METHODS FOR ADDRESSING INJECTION SITE REACTIONS ASSOCIATED WITH THE ADMINISTRATION OF BEVEMIPRETIDE” (Stealth BioTherapeutics Inc., priority 2023, published 2025).

Columns and labels:
human MRGPRX2 [1] = target: T1, human MRGPRX2 (Homo sapiens, UniProt Q96LB1); experiment: Calcium mobilization (Fluo-4 AM) in MRGPRX2 expressing Chem-1 cells; type: cell-based; design: host or cells: Chem-1 cells (G418-selected); conditions: for inhibition of the activation of the MRGPRX2 receptor caused by bevemipretide: MRGPRX2 expressing cells with 100 μM of bevemipretide, FIGS. 7A and 7B; for activation of the MRGPRX2 expressing cells (calcium response): MRGPRX2 expressing Chem-1 cells, FIG. 5A, FIG. 6
T1 sequence (Q96LB1 1-330): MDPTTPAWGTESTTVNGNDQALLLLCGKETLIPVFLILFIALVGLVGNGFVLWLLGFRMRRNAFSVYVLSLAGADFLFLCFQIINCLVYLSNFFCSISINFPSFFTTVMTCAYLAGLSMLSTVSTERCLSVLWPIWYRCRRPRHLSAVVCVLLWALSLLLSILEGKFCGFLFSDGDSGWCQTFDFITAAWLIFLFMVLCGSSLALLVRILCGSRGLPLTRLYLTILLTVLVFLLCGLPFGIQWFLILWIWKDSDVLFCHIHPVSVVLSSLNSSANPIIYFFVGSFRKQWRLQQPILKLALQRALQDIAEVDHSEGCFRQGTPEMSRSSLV
Experimental: (§1) MRGPRX2 expressing and control (non-MRGPRX2 expressing) Chem-1 cells lines were obtained from Discovery Services, EuroFins. Cells were cultured in Dulbecco's Modified Eagle Medium (DMEM) high glucose medium (4.5 g/L) with 10% fetal bovine serum (FBS), non-essential amino acids, and N-2-hydroxyethylpiperazine-N′-2-ethanesulfonic acid (HEPES) buffer (pH 7.0-7.6). Geneticin (G418) was used for selection of MRGPRX2-expressing Chem-1 cells. Cells were maintained at 37° C. at 5% CO2. Cells were seeded to a glass bottom 96-well plates at a density of 50,000 per well (Cellvis). Cells were loaded with Fluo-4 AM for 30 minutes at 37° C. at a concentration of 2.5 μM. Cells were washed once with Dulbecco's phosphate buffered saline (DPBS). Cells were rested at room temperature for 30 minutes before use and washed with DPBS. Cells were resuspended in 50 μL phosphate buffered saline (PBS) with calcium and magnesium. To stimulate cells, 50 μL of 2× drug (bevemipretide or leuprolide) or DPBS as a control. Plates were read immediately with a Biotek plate reader. Readings were taken every 6 seconds for 2 minutes.
(§2) This assay was designed as a calcium-based readout of receptor activity.

[2] = system: control (non-MRGPRX2 expressing) Chem-1 cells; experiment: Calcium mobilization (Fluo-4 AM) in control Chem-1 cells lacking the MRGPRX2 receptor; type: cell-based, human; conditions: parent Chem-1 cells lacking MRGPRX2; FIG. 5B
Experimental: as §1, §2

[3] = Phase 1 human clinical trial, subcutaneous administration; type: in vivo; conditions: phase 1, subcutaneous administration
[4] = Long term toxicology studies in rats, subcutaneous administration; type: in vivo
[5] = Long term toxicology studies of non-human primates; type: in vivo
human MRGPRX2 [6] = target: T1, human MRGPRX2; experiment: Fluo-4 calcium assay in HEK293 cells stably expressing human MRGPRX2 and Galpha15 (fluorescent plate reader); type: cell-based; design: expressed in transfected cells; host or cells: clonal HEK293 cell line; conditions: calcium response, multiple runs, FIG. 4
Experimental: A clonal HEK293 cell line stably expressing human MRGPRX2 and Galpha15 was used for the assay, which was performed using a fluorescent plate reader. Cells were plated at 40,000 cells per well in a glass-bottom 96 well plate 20 hours before the assay. Cells were loaded with N-[4-[6-[(Acetyloxy)methoxy]-2,7-difluoro-3-oxo-3H-xanthen-9-yl]-2-[2-[2-[bis[2-[(acetyloxy)methoxy]-2-oxoethyl]amino]-5-methylphenoxy]ethoxy]phenyl]-N-[2-[(acetyloxy)methoxy]-2-oxoethyl]glycine (acetyloxy)methyl ester (Fluo-4 AM) for 45 minutes at 37°° C. and allowed to rest for 30 minutes before use. Baseline fluorescence was calculated as the average of a 30 second read, with data points taken at 5 second intervals. Response was defined as the maximum signal within 90 seconds after addition of bevemipretide, subtracted by the baseline fluorescence signal. Concentrations were tested in duplicate and the assay was run 6 times. The curve was calculated as a four-parameter non-linear fit with variable slope. Traces were obtained using the same cell line and same Fluo-4 AM loading protocol but were imaged using a fluorescence microscope using a standard fluorescein isothiocyanate (FITC) filter. Fluorescence for different cells was calculated using region of interest selections.

Structure (SMILES) | inhibition of the activation of the MRGPRX2 receptor caused by bevemipretide (human MRGPRX2 [1]) | effect on cells lacking the MRGPRX2 receptor (calcium response) [2] | activation of the MRGPRX2 expressing cells (calcium response) (human MRGPRX2 [1]) | further results
C[C@@H]1C[C@H]2[C@@H]3CCC4=CC(=O)C=C[C@]4(C)[C@@]3(Cl)[C@@H](O)C[C@]2(C)[C@@]1(O)C(=O)CCl [monetasone, mometasone] | in a dose-dependent manner, inhibit the activation |  |  | 
O=c1c(O)c(-c2ccc(O)c(O)c2)oc2cc(O)cc(O)c12 [quercetin, 3,3′,4′,5,7-pentahydroxyflavone] | in a dose-dependent manner, inhibit the activation |  |  | 
Cc1cc(O)cc(C)c1C[C@H](NC(=O)[C@H](N)CCCNC(=N)N)C(=O)N[C@@H](CCCCN)c1nc(Cc2ccccc2)no1 [bevemipretide] |  | no effect | dose dependent activation | injection site reactions [3]: injection site reactions were observed as an adverse event; injection site reactions [4]: injection site reactions were observed from subcutaneous administration; some being severe at the higher dose levels administered; injection site reactions [5]: generally not severe even at the highest dosages tested; EC50 (human MRGPRX2 [6]): 43.8 to 54.1 µM
C[C@H](CCC(=O)O)C[C@H](C)C[C@H](C)C(=O)/C=C(\O)[C@H](C)C[C@H](C)C/C=C/[C@@H](C)[C@@H](O)[C@@H](C)[C@@H](O)C[C@@H]1CC[C@@](C)([C@H]2CC[C@@](C)([C@@H](C)O)O2)O1 [Ionomycin, reference compound] |  | generates a calcium response | generates a calcium response | 
CCNC(=O)[C@@H]1CCCN1C(=O)[C@H](CCCNC(=N)N)NC(=O)[C@H](CC(C)C)NC(=O)[C@@H](CC(C)C)NC(=O)[C@H](Cc1ccc(O)cc1)NC(=O)[C@H](CO)NC(=O)[C@H](Cc1c[nH]c2ccccc12)NC(=O)[C@H](Cc1c[nH]cn1)NC(=O)[C@@H]1CCC(=O)N1 [leuprolide] |  |  | dose dependent activation | 
